Reference: US5510331A, “Antihypertensive peptides” (Roussel UCLAF, priority 1990, dated 1996)
Where a SMILES comes first, the peptide text is derived from it. Bridges are numbered along the chain shown (N, C = ends). [ ]: non-standard residue; d: D form. d2Nal = N[C@H](Cc1ccc2ccccc2c1)C(=O)O; Nle = CCCC[C@H](N)C(=O)O

Target: endotheline receptor
Assay: Activity on the endotheline receptor: displacement of 125I endotheline from rat brain membrane preparation
Assay type: binding
Conditions: membrane preparation from rat posterior cortex and brain, 25° C., 60 minutes, 7 concentrations, read-out: IC50 (50% inhibiting concentration; concentration necessary to displace 50% of the specific radioactivity fixed on the receptor)
Method: A membrane preparation was made from rat posterior cortex and brain and the tissue was ground with a POLYTRON in a 50 mM Tris buffer pH=7.4. After 30 minutes at 25° C. (W.B.), the homogenate was centrifuged at 30,000 g for 15 minutes (2 centrifugations with intermediate taking up in the Tris buffer pH 7.4). The deposits were suspended in an incubation buffer (Tris 25 mM, pepstatine A 5 microg/ml, aprotinine 3 microg/ml, PMSF 0.1 mM, EDTA 3 mM, EGTA 1 mM pH 7.4). 2 ml aliquots were distributed in hemolysis tubes and ^125 I endotheline (approximately 50,000 dpm/tube) and the product to be studied were added. The product was first tested at 3×10^-5 M in triplicate. When the product tested displaced more than 50% of radioactivity linked specifically to the receptor, it was tested again in a range of 7 concentrations to determine the concentration which inhibited the radioactivity linked specifically to the receptor by 50%. In this way, the 50% inhibiting concentration was determined.
The non-specific bond was determined by the addition of endotheline at 10^-6 M (in triplicate) and the deposits were incubated at 25° C. for 60 minutes, put in a water-bath at 0° C. for 5 minutes, filtered under reduced pressure and rinsed with a Tris buffer 7.4 pH. The radioactivity was counted in the presence of scintillating Triton. The result was expressed directly as a 50% inhibiting concentration (IC50), or the concentration of product studied expressed in nM necessary to displace 50% of the specific radioactivity fixed on the receptor studied.

Row | Structure (SMILES) | IC50 [nM]
1 | CC[C@H](C)[C@H](NC(=O)[C@H](CC(=O)O)NC(=O)[C@H](CC(C)C)NC(=O)[C@H](Cc1c[nH]cn1)NC(=O)[C@@H]1CSSC[C@H](N)C(=O)N[C@@H](CO)C(=O)N[C@H]2CSSC[C@H](NC(=O)[C@H](CCC(=O)O)NC(=O)[C@H](CCCCN)NC(=O)[C@H](CC(=O)O)NC(=O)CNC(=O)[C@H](CC(C)C)NC(=O)[C@H](CO)NC(=O)[C@H](CO)NC2=O)C(=O)N[C@@H](C(C)C)C(=O)N[C@@H](Cc2ccc(O)cc2)C(=O)N[C@@H](Cc2ccccc2)C(=O)N1)C(=O)N[C@H](C(=O)N[C@@H](Cc1c[nH]c2ccccc12)C(=O)O)[C@@H](C)CC [Example 2, (Gly-7)--ET1 derivative] (H-CSCSSLGDKECVYFCHLDIIW-OH; disulfide 1-15, 3-11) | 1.4
2 | CCCC[C@@H]1NC(=O)[C@H](CC(C)C)NC(=O)[C@H](CO)NC(=O)[C@H](CO)NC(=O)[C@@H]2CSSC[C@H](NC(=O)[C@H](CCC(=O)O)NC(=O)[C@H](CCCCN)NC(=O)[C@H](CC(=O)O)NC1=O)C(=O)N[C@@H](C(C)C)C(=O)N[C@@H](Cc1ccc(O)cc1)C(=O)N[C@@H](Cc1ccccc1)C(=O)N[C@H](C(=O)N[C@@H](Cc1c[nH]cn1)C(=O)N[C@@H](CC(C)C)C(=O)N[C@@H](CC(=O)O)C(=O)N[C@H](C(=O)N[C@H](C(=O)N[C@H](Cc1ccc3ccccc3c1)C(=O)O)[C@@H](C)CC)[C@@H](C)CC)CSSC[C@H](N)C(=O)N[C@@H](CO)C(=O)N2 [Example 3, (Nle-7)-DiNaphtylalanine-21-ET1 derivative] (H-CSCSSL[Nle]DKECVYFCHLDII[d2Nal]-OH; disulfide 1-15, 3-11) | 2
3 | CCCC[C@@H]1NC(=O)[C@H](CC(C)C)NC(=O)[C@H](CO)NC(=O)[C@H](CO)NC(=O)[C@@H](N)CSSC[C@@H](C(=O)N[C@@H](Cc2c[nH]cn2)C(=O)N[C@@H](CC(C)C)C(=O)N[C@@H](CC(=O)O)C(=O)N[C@H](C(=O)N[C@H](C(=O)N[C@@H](Cc2c[nH]c3ccccc23)C(=O)O)[C@@H](C)CC)[C@@H](C)CC)NC(=O)[C@H](CCC(=O)O)NC(=O)[C@H](CCCCN)NC(=O)[C@H](CC(=O)O)NC1=O [Example 7] (H-CSSL[Nle]DKECHLDIIW-OH; disulfide 1-9) | 3520
4 | CCCC[C@H](NC(=O)[C@H](CC(C)C)NC(=O)[C@H](CO)NC(=O)[C@H](CO)NC(=O)[C@@H](N)CS)C(=O)N[C@@H](CC(=O)O)C(=O)N[C@@H](CCCCN)C(=O)N[C@@H](CCC(=O)O)C(=O)N[C@@H](CS)C(=O)N[C@@H](Cc1c[nH]cn1)C(=O)N[C@@H](CC(C)C)C(=O)N[C@@H](CC(=O)O)C(=O)N[C@H](C(=O)N[C@H](C(=O)N[C@@H](Cc1c[nH]c2ccccc12)C(=O)O)[C@@H](C)CC)[C@@H](C)CC [Example 8] (H-CSSL[Nle]DKECHLDIIW-OH) | 5350
5 | CC[C@H](C)[C@H](NC(=O)[C@H](CC(=O)O)NC(=O)[C@H](CC(C)C)NC(=O)[C@H](Cc1c[nH]cn1)NC(=O)[C@@H]1CSSC[C@H](N)C(=O)N[C@@H](CC(C)C)C(=O)N[C@@H](C)C(=O)NCC(=O)N2CCC[C@H]2C(=O)N[C@@H](CC(N)=O)C(=O)NCC(=O)N[C@@H](Cc2ccc(O)cc2)C(=O)N1)C(=O)N[C@H](C(=O)N[C@@H](Cc1c[nH]c2ccccc12)C(=O)O)[C@@H](C)CC [Example 9] (H-CLAGPNGYCHLDIIW-OH; disulfide 1-9) | 7500
6 | CC[C@H](C)[C@H](NC(=O)[C@H](CC(=O)O)NC(=O)[C@H](CC(C)C)NC(=O)[C@H](Cc1c[nH]cn1)NC(=O)[C@H](CS)NC(=O)[C@H](Cc1ccc(O)cc1)NC(=O)CNC(=O)[C@H](CC(N)=O)NC(=O)[C@@H]1CCCN1C(=O)CNC(=O)[C@H](C)NC(=O)[C@H](CC(C)C)NC(=O)[C@@H](N)CS)C(=O)N[C@H](C(=O)N[C@@H](Cc1c[nH]c2ccccc12)C(=O)O)[C@@H](C)CC [Example 10] (H-CLAGPNGYCHLDIIW-OH) | 620
7 | CC[C@H](C)[C@H](NC(=O)[C@H](CC(=O)O)NC(=O)[C@H](CC(C)C)NC(=O)[C@H](Cc1c[nH]cn1)NC(=O)[C@@H]1CSSC[C@H](N)C(=O)N[C@@H]([C@@H](C)O)C(=O)N[C@H]2CSSC[C@H](NC(=O)[C@H](CCC(=O)O)NC(=O)[C@H](CCCCN)NC(=O)[C@H](CC(=O)O)NC(=O)[C@H]([C@@H](C)O)NC(=O)[C@H](CCSC)NC(=O)[C@H](CC(=O)O)NC(=O)[C@H](CCCCN)NC2=O)C(=O)N[C@@H](C(C)C)C(=O)N[C@@H](Cc2ccc(O)cc2)C(=O)N[C@@H](Cc2ccccc2)C(=O)N1)C(=O)N[C@H](C(=O)N[C@@H](Cc1c[nH]c2ccccc12)C(=O)O)[C@@H](C)CC [Example 11] (H-CTCKDMTDKECVYFCHLDIIW-OH; disulfide 1-15, 3-11) | 1.3
8 | CCCC[C@@H]1NC(=O)[C@H](CC(C)C)NC(=O)[C@H](CO)NC(=O)[C@H](CO)NC(=O)[C@@H]2CSSC[C@H](NC(=O)[C@H](CCC(=O)O)NC(=O)[C@H](CCCCN)NC(=O)[C@H](CC(=O)O)NC1=O)C(=O)N[C@@H](C(C)C)C(=O)N[C@@H](Cc1ccc(O)cc1)C(=O)N[C@@H](Cc1ccccc1)C(=O)N[C@H](C(=O)N[C@@H](Cc1c[nH]cn1)C(=O)N[C@@H](CCC(N)=O)C(=O)N[C@@H](CC(=O)O)C(=O)N[C@H](C(=O)N[C@H](C(=O)N[C@@H](Cc1c[nH]c3ccccc13)C(=O)O)[C@@H](C)CC)[C@@H](C)CC)CSSC[C@H](N)C(=O)N[C@@H](CO)C(=O)N2 [Example 12] (H-CSCSSL[Nle]DKECVYFCHQDIIW-OH; disulfide 1-15, 3-11) | 2.3
9 | CC[C@H](C)[C@H](NC(=O)[C@H](CC(=O)O)NC(=O)[C@H](CCC(N)=O)NC(=O)[C@H](Cc1c[nH]cn1)NC(=O)[C@@H]1CSSC[C@H](N)C(=O)N[C@@H](CO)C(=O)N[C@H]2CSSC[C@H](NC(=O)[C@H](CCC(=O)O)NC(=O)[C@H](CCCCN)NC(=O)[C@H](CC(=O)O)NC(=O)[C@H](CCSC)NC(=O)[C@H](CC(C)C)NC(=O)[C@H](CO)NC(=O)[C@H](CO)NC2=O)C(=O)N[C@@H](CC(C)C)C(=O)N[C@@H](Cc2ccc(O)cc2)C(=O)N[C@@H](Cc2ccccc2)C(=O)N1)C(=O)N[C@H](C(=O)N[C@@H](Cc1c[nH]c2ccccc12)C(=O)O)[C@@H](C)CC [Example 13] (H-CSCSSLMDKECLYFCHQDIIW-OH; disulfide 1-15, 3-11) | 3.5
10 | CC[C@H](C)[C@H](NC(=O)[C@H](CC(=O)O)NC(=O)[C@H](CCCNC(=N)N)NC(=O)[C@H](Cc1c[nH]cn1)NC(=O)[C@@H]1CSSC[C@H](N)C(=O)N[C@@H]([C@@H](C)O)C(=O)N[C@H]2CSSC[C@H](NC(=O)[C@H](CCC(=O)O)NC(=O)[C@H](CCCCN)NC(=O)[C@H](CC(=O)O)NC(=O)[C@H]([C@@H](C)O)NC(=O)[C@H](CCSC)NC(=O)[C@H](CC(=O)O)NC(=O)[C@H](CCCCN)NC2=O)C(=O)N[C@@H](CC(C)C)C(=O)N[C@@H](Cc2ccc(O)cc2)C(=O)N[C@@H](Cc2ccccc2)C(=O)N1)C(=O)N[C@H](C(=O)N[C@@H](Cc1c[nH]c2ccccc12)C(=O)O)[C@@H](C)CC [Example 15] (H-CTCKDMTDKECLYFCHRDIIW-OH; disulfide 1-15, 3-11 (inferred); N-terminus assumed) | 1.8
